The record followed here is patent publication US5948786A, “Piperidinylpyrimidine derivatives” (Sumitomo Pharmaceuticals Company, Limited, priority 1996, dated 1999).

Structures are written as SMILES.

Common to all, as to assay type: cell-based
Assay [1] deals with TNF α production from human peripheral blood mononuclear cells (PBMC). The assay is described as follows: Inhibitory activity of compound on TNF α production from PBMC. How it is done:
TNF α was induced by 10 μg/ml of LPS (E. coli O111B4, DIFCO, Detroit, Mich., USA) the cells were cultured for 18 hours at 37° C. A compound of the present invention was dissolved in DMSO and added to the culture simultaneously with LPS. […] Each well of the plate first was incubated at room temperature with biotinylated anti-mouse TNF α polyclonal antibodies (PharMingen) for 45 minutes, then with peroxidase-conjugated streptavidin (Kirkegaard & Perry Laboratories Inc., Gaitherburg, Md., USA) for 30 minutes. After each incubation, the plate was washed 4 to 8 times with PBS containing 0.2% Tween 20. TMB (Kirkegaard & Perry Laboratories Inc.) was the peroxidase substrate used and, the absorbance of each well was quantified at 450 nm by a microplatereader (Molecular Devices Corp., CA, USA). TNF α levels in the supernatant were quantified with rm-TNF α as the standard. Inhibitory activity of TNF α production was also quantified using human peripheral blood mononuclear cells(PBMC) instead of PEC's. Results are shown in table 9, 10, 11, 12, 13, 14, 15, 16, 17, 18, 19 and 20.

Assay [2] relates to TNF α production from mouse macrophages. In words: Inhibitory activity of compound on TNF α Production from mouse macrophages (LPS-induced PEC's). As to conditions: Macrophage, LPS 10 μg/ml, 18 hours. An outline of the steps: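 Thioglycollate-elicited peritoneal macrophages from female BALB/c mice (adherent, 2×10^5 cells/well) were stimulated with 10 μg/ml LPS plus compound (final DMSO below 0.1%) for 18 h at 37°C. Supernatant TNF α was measured by sandwich ELISA (TMB, 450 nm) against a recombinant mouse TNF α standard.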

The subject of assay [3] is HIV-1 LTR-CAT gene expression in Jurkat cells. In words: PMA induced HIV-1 LTR-CAT gene expression in Jurkat cells. Particulars: Homo sapiens, PMA 10 ng/ml, 24 hours. As to the method: (§1) p469, HIV-1 LTR driven CAT and pSV-Tat, Tat-expression vector were kindly provided from Dr. Gary J. Nabel (Nature Vol. 326, 711(1987))
(§2) RPMI 1640 medium (Life Technologies, Grand Island, N.Y., USA) was supplemented with heat-inactivated fetal calf serum (FBS; Sigma, St. Louis, Mo., USA).
(§3) Human T lymphoma cell line, Jurkat, was cultured in medium described above Transfection;
(§4) Introduction of plasmid DNA into cells was carried out according to the method described in Chiang, J. Li et al., Proc. Natl. Acad. Sci. Vol. 92, 5461-5464 (1995). Briefly, the cells were suspended with the medium at 2×10^7 cells/ml followed by addition 1 μg of p469 and 0.5 μg of DEAE-dextran (Sigma). In some experiments the cells were co-transfected with 0.5 μg of pSV-Tat. After 10 minutes incubation at room temperature with occasionally mixing, the cells were pulsed with electroporation apparatus at 140 V. The cells were re-suspended with the fresh medium and cultured for 20 hours at 37° C.
(§5) A compound tested was dissolved in dimethylsulfoxide at 100 mM as a stock solution. The aliquots of the stock solution were kept frozen at -20° C. Jurkat cells transfected with p469 were treated with 10 ng/ml of phorbol 12-myristate 13-acetate (PMA; Sigma) to activate HIV-1-LTR directed CAT gene transcription in the presence of the compound. In the case of cells transfected with p469 and pSV-Tat, they were simply treated with the compound. After the cells were cultured for an additional 24 hours at 37° C., the cells were washed 2 times with phosphate-buffered saline and lysed in 50 mM Tris-HCl plus 15% glycerol with repeated cycles of freeze and thaw. The cell lysates were clarified by centrifugation followed by determination of protein concentration by Bradford method (Bio-Rad, Hercules, Calif., USA). Measurement of a CAT activity in cell lysates was carried out according to a similar method described in Fridovich-Keil J. L. et. al., Cell Growth and Differentiation, Vol. 2, 67-76(1991). Equal amount (30 μg of protein) of cell lysates was incubated at 37° C. with 35 μg of acetyl co-enzyme A (GIBCO/BRL, Grand Island, Mo., USA) and 0.1 μCi of 14C-chloramphenicol (Dupont, NEN Boston, Mass., USA) in […] solution for 2 hours. Acetyl-14C-chloramphenicol was extracted with 9 volumes of ethyl acetate and fractionated on a TLC gel with 1:19 (v/v) in methanol/chloroform. The CAT activity was detected by autoradiography and quantified by an Imaging Densitometer (model GS-700; Bio-Rad).

For assay [4], the system named is Tat induced HIV-1 LTR-CAT gene expression in Jurkat cells. The assay is described as follows: Tat induced HIV-1 LTR-CAT gene expression in Jurkat cells. Particulars: Homo sapiens, Tat (pSV-Tat), 24 hours. How it is done: as §1, §2, §3, §4, §5

On to `COc1ccc(Cc2cc(C3CCN(C(=O)c4ccc5c(c4)OCCO5)CC3)nc(N)n2)cc1` [Example 291], for which the inhibition (commonly the change of the read-out against control, counted positive when it falls) at 30 µM in assay [1] came out at 88%.

Turning to `Nc1nc(C2CCN(C(=O)c3ccc4c(c3)OCO4)CC2)c2cc(Cl)ccc2n1` [Example 130], the inhibition at 30 µM is 100% in assay [2] and 57% in assay [1]. The inhibition at 5 µM in assay [3] was 67%.

As for `Nc1nc(Cc2ccc(O)cc2)cc(C2CCN(C(=O)c3ccc4c(c3)OCO4)CC2)n1` [Example 315, 2-Amino-4-(4-hydroxyphenylmethyl)-6-[1-(3,4-methylenedioxybenzoyl)-4-piperidinyl] pyrimidine], the inhibition at 30 µM in assay [1] came out at 86%.

As for `COc1ccc(Cc2cc(C3CCN(C(=O)c4ccc(O)c(OC)c4)CC3)nc(N)n2)cc1` [Example 300], the inhibition at 30 µM in assay [1] amounted to 80%.

Take `Nc1nc(Cc2ccc(Cl)c(Cl)c2)cc(C2CCN(C(=O)c3ccc4c(c3)OCO4)CC2)n1` [Example 311]: the inhibition at 30 µM in assay [1] came out at 69%. Also, the inhibition at 5 µM in assay [4] stood at 63%.

For the compound `Nc1nc(Cc2ccc3c(c2)OCO3)cc(C2CCN(C(=O)c3ccc4c(c3)OCO4)CC2)n1` [Example 314], the inhibition at 30 µM in assay [1] was determined as 84%. In assay [4], the inhibition at 5 µM was 76%.

Consider `Nc1nc(C2CCN(C(=O)c3ccc4c(c3)OCO4)CC2)c2ccccc2n1` [Example 65], for which the inhibition at 30 µM in assay [1] came out at 46%. Further, the values for the inhibition at 5 µM in assay [3] and in assay [4] were 94% and 81%, respectively.

On to `COc1ccc(-c2cc(C3CCN(C(=O)c4ccc5c(c4)OCO5)CC3)nc(N)n2)cc1` [Example 157], for which the figures for the inhibition at 30 µM in assay [2] and in assay [1] were 84% and 37%, respectively. For the same compound, the inhibition at 5 µM in assay [3] was 81%.

Turning to `COc1ccc(Cc2cc(C3CCN(C(=O)c4ccc(F)c(F)c4)CC3)nc(N)n2)cc1` [Example 292], the inhibition at 30 µM in assay [1] stood at 66%.

As to `Nc1nc(CCc2ccccc2)cc(C2CCN(C(=O)c3ccc4c(c3)OCO4)CC2)n1` [Example 259], the inhibition at 30 µM in assay [1] came to 68%. Further, the values for the inhibition at 5 µM in assay [3] and in assay [4] were 25% and 51%, respectively.

Take `Nc1nc(Cc2ccc(Cl)cc2Cl)cc(C2CCN(C(=O)c3ccc4c(c3)OCO4)CC2)n1` [Example 312]: the inhibition at 30 µM in assay [1] is 57%. Moreover, in assay [4], the inhibition at 5 µM was 65%.

With `COc1ccc(Cc2cc(C3CCN(C(=O)c4ccc5c(c4)OCO5)CC3)nc(N)n2)cc1OC` [Example 306], the inhibition at 30 µM in assay [1] was 85%. Further, the inhibition at 5 µM was 75% in assay [3] and 22% in assay [4].

Take `Nc1nc(Cc2ccc(Br)cc2)cc(C2CCN(C(=O)c3ccc4c(c3)OCO4)CC2)n1` [Example 303, 2-Amino-4-(4-bromophenylmethyl)-6-[1-(3,4-methylenedioxybenzoyl)-4-piperidinyl]pyrimidine]: in assay [1], the inhibition at 30 µM was found to be 92%. Also, the inhibition at 5 µM in assay [4] worked out at 65%.

Consider `Nc1nc(Cc2ccccc2Cl)cc(C2CCN(C(=O)c3ccc4c(c3)OCO4)CC2)n1` [Example 310], for which the inhibition at 30 µM in assay [1] was 83%. In addition, the inhibition at 5 µM in assay [4] stood at 67%.

As for `COc1cccc(Cc2cc(C3CCN(C(=O)c4ccc5c(c4)OCO5)CC3)nc(N)n2)c1` [Example 305], the inhibition at 30 µM in assay [1] was determined as 80%. Further, in assay [4], the inhibition at 5 µM was 72%.

Regarding `COc1ccc(Cc2cc(C3CCN(C(=O)c4ccc(O)c(O)c4)CC3)nc(N)n2)cc1` [Example 302, 2-Amino-4-[1-(3,4-dihydroxybenzoyl)-4-piperidinyl]-6-(4-methoxyphenylmethyl) pyrimidine], in assay [1], the inhibition at 30 µM turned out to be 86%.

Regarding `Nc1nc(-c2ccccc2)cc(C2CCN(C(=O)c3ccc4c(c3)OCO4)CC2)n1` [Example 140], the inhibition at 30 µM in assay [2] worked out at 72%; in assay [1] it was 35%. Moreover, the inhibition at 5 µM in assay [3] was 100%.

On to `COc1cc(Cc2cc(C3CCN(C(=O)c4ccc5c(c4)OCO5)CC3)nc(N)n2)cc(OC)c1` [Example 308], for which, in assay [1], the inhibition at 30 µM turned out to be 87%. In addition, the inhibition at 5 µM in assay [4] came out at 70%.

Take `COc1cc(Cc2cc(C3CCN(C(=O)c4ccc5c(c4)OCO5)CC3)nc(N)n2)cc(OC)c1OC` [Example 309]: the inhibition at 30 µM in assay [1] turned out to be 65%. Further, the inhibition at 5 µM in assay [4] came out at 62%.

Turning to `COc1ccc(Cc2cc(C3CCN(C(=O)c4ccc5[nH]ccc5c4)CC3)nc(N)n2)cc1` [Example 290], in assay [1], the inhibition at 30 µM came out at 101%.

For `COc1ccc(Cc2cc(C3CCN(C(=O)c4ccc(OC)c(O)c4)CC3)nc(N)n2)cc1` [Example 301], the inhibition at 30 µM in assay [1] was found to be 88%.

As to `Nc1nc(Cc2ccccc2)cc(C2CCN(C(=O)c3ccc4c(c3)OCO4)CC2)n1` [Example 304], the inhibition at 30 µM in assay [1] was found to be 83%. Further, the inhibition at 5 µM in assay [4] was 44%.

`COc1ccc(Cc2cc(C3CCN(C(=O)c4ccc5[nH]cnc5c4)CC3)nc(N)n2)cc1` [Example 289]: the inhibition at 30 µM in assay [1] was determined as 93%.

As for `Nc1nc(-c2ccc(Cl)cc2)cc(C2CCN(C(=O)c3ccc4c(c3)OCO4)CC2)n1` [Example 150], the results for the inhibition at 30 µM in assay [2] and in assay [1] were 100% and 11%, respectively. For the same compound, the inhibition at 5 µM in assay [3] was 54%.

As to `CCCCCCCCCC(=O)N1CCC(c2nc(N)nc3ccc(Cl)cc23)CC1` [Example 129], in assay [2], the inhibition at 30 µM was determined as 48%.

As to `COc1ccc(CC(=O)N2CCC(c3nc(N)nc4ccccc34)CC2)cc1OC` [Example 92], in assay [2], the inhibition at 30 µM turned out to be 68%.

With `Nc1nc(C2CCN(C(=O)c3ccc(Cl)cc3Cl)CC2)c2ccccc2n1` [Example 59], the inhibition at 30 µM in assay [2] came to 56%.

As for `NCCCCCCCCCCC(=O)N1CCC(c2nc(N)nc3ccccc23)CC1` [Example 286, 2-amino-4-[1-(11-aminoundecanoyl)-4-piperidinyl]quinazoline], in assay [2], the inhibition at 30 µM is 67%.

Regarding `COc1ccc(Cc2cc(C3CCN(C(=O)Cc4ccc(Cl)cc4)CC3)nc(N)n2)cc1` [Example 227], in assay [2], the inhibition at 30 µM worked out at 63%.

For `COc1ccc(CC(=O)N2CCC(c3cc(CCc4ccccc4)nc(N)n3)CC2)cc1` [Example 261], the inhibition at 30 µM in assay [2] worked out at 42%.

With `Nc1nc(-c2ccc(Cl)cc2)cc(C2CCN(C(=O)Cc3ccc([N+](=O)[O-])cc3)CC2)n1` [Example 153], the inhibition at 30 µM in assay [2] came out at 92%.

With `COc1ccc(Cc2cc(C3CCN(C(=O)Cc4cccc(OC)c4)CC3)nc(N)n2)cc1` [Example 223], the inhibition at 30 µM in assay [2] stood at 82%.

With `COc1ccc(CC(=O)N2CCC(c3cc(-c4ccc(Cl)cc4)nc(N)n3)CC2)cc1` [Example 151], in assay [2], the inhibition at 30 µM is 70%.

On to `CC(C)(C)OC(=O)NCCCCCCCCCCC(=O)N1CCC(c2nc(N)nc3ccccc23)CC1` [Example 29, 2-amino-4-[1-(11-t-butoxycarbonylaminoundecanoyl)-4-piperidinyl]quinazoline], for which the inhibition at 30 µM in assay [2] is 100%.

For `COc1ccc(Cc2cc(C3CCN(C(=O)c4cccc([N+](=O)[O-])c4)CC3)nc(N)n2)cc1` [Example 185], the inhibition at 30 µM in assay [2] stood at 69%.

Turning to `Nc1nc(Cc2c(Cl)cccc2Cl)cc(C2CCN(C(=O)c3ccc4c(c3)OCO4)CC2)n1` [Example 313], the inhibition at 30 µM in assay [1] came to 91%. Also, in assay [4], the inhibition at 5 µM stood at 69%.
